Reference: PMC10052652 (Molecules, 2023)
Read-outs that look alike come from different tables or passages of the source.

Assays:
[1] = ABTS radical cation scavenging assay; conditions: for ABTS Assay %: at 100 µM
Experimental: ABTS (2,2′-azinobis-3-ethylbenzothiazoline-6-sulfonate) assay
The radical scavenging capacity of antioxidants for the ABTS radical cation was evaluated following this method: ABTS was prepared by adding 7 mM solution of ABTS at pH 7.4 (5 mM NaH2PO4, 5 mM Na2HPO4, and 154 mM NaCl) with 2.5 mM potassium persulfate. The mixture was stored at room temperature for 16 h in the dark before use and prepared […]. Once diluted with persulfate buffer, the absorbance of the mixture yielded an absorbance value of 0.70 ± 0.05 units at 734 nm. Then, 20 µL of each tested sample was mixed with fresh ABTS solution (180 µL), then the absorbance was measured 6 min after the initial mixing. Ascorbic acid was used as a standard. The capacity of free radical scavenging was expressed as a percentage of the inhibition values. The percentage of inhibition is calculated using the same expression employed in the DPPH assay.

[2] = molecular target: T1, acetylcholinesterase (AChE) (Homo sapiens, UniProt P22303); assay: biochemical
T1 sequence (P22303 32-614, species assumed): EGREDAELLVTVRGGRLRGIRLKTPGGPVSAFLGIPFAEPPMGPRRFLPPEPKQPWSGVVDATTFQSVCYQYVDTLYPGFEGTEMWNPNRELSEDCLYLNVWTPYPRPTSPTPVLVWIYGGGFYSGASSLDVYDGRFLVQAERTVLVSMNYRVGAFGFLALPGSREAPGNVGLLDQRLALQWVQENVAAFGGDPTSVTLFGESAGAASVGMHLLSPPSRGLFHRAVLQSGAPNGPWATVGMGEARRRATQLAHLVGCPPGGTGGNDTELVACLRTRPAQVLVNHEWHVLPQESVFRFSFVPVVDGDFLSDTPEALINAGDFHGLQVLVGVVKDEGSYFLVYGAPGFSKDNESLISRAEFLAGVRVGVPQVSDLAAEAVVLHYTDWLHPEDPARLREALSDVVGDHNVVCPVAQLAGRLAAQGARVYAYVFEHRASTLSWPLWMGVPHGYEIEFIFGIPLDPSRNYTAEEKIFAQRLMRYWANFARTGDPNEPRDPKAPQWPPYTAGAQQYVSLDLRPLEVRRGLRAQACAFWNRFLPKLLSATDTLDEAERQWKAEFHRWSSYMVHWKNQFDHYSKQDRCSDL
Experimental: The enzymatic activity was assessed via a modified colorimetric Ellman′s method. First, 50 µL of Tris-HCl buffer (pH 8), 25µL of a buffer solution of the sample (50 µg/mL), and 25 µL of an acetylcholinesterase (AChE) enzyme solution containing 2.8 U/mL were mixed. A reaction was then initiated via the addition of 125 µL of 3 mM […]. After incubation for 15 min at 25 °C, 25 µL of a solution of iodide acetylthiocholine15 mM was added to a 96-well microplate. […] Inhibition (%) was calculated in the following way: Inhibition (%) = [(A control − A sample)/A control] × 100, where (A sample) is the absorbance of the molecule containing the reaction and (A control) is the absorbance of the reaction control. Tests were carried out in triplicate.

SKOV-3 cells = assay: Cytotoxic activity, MTT assay, SKOV-3; assay type: cell-based, human
[3] = DPPH radical scavenging assay; conditions: for DPPH Assay %: at 100 µM
Experimental: DPPH• (1-1-diphenyl 2-picryl hydrazyl) assay
This method is based on the spectrophotometric assay using the stable radical, DPPH•, as a reagent. First, 20 µL of each sample (4 mg/mL) was mixed with 180 µL of 0.1 mM DPPH• in methanol, in plates, after an incubation of 25 min in the dark. Absorbance was measured at 517 nm. Ascorbic acid was used as the reference compound. The radical-scavenging activities of molecules, expressed as a percentage inhibition of DPPH•, were calculated according to the following formula: Inhibition (%) = [(A control − A sample)/A control] × 100 where A is the absorbance determined at 517 nm. The absorbance of the solvent and DPPH• radical without the molecule was measured as the control.

HCT116 cells = assay: Cytotoxic activity, MTT assay, HCT116; assay type: cell-based, human
Experimental: The cancer cell lines used in this study were HCT116 (colorectal carcinoma), IGROV1 (ovarian cancer), OVCAR3 (ovarian cancer), and MCF7 (mammary gland/breast cancer). […] Cell lines were maintained in culture and were incubated at 37 °C in an incubator with 5% CO2 in a humidified atmosphere. All tests were established at 80% of confluence, and viability was estimated with a trypan blue exclusion assay.
The cytotoxic activities of molecules against cancer cell lines were evaluated using an MTT assay. The MTT colorimetric assay was performed using 96-well plates. Cells were seeded in a 96-well plate, at a concentration of 10 × 10^3 cells/well for HCT116 and 12 × 10^3 cells/well for MCF7, IGROV1, and OVAR. Adherent cells were dispatched and incubated at 37 °C overnight in a 5% CO2-enriched atmosphere. […] After that, the medium was removed, and cells were treated with 50 µL of 3-(4,5-dimethylthazolk-2-yl)-2,5-diphenyl tetrazolium bromide (MTT) solution (3 mg/mL in PBS) at 37 °C for 20 to 40 min. To dissolve the […], we added 80 µL of 100% DMSO. Optical density was measured at 540 nm. All tests were established in triplicate. […]

α-amylase = molecular target: T2, α-amylase (Homo sapiens, UniProt P04746); assay: Anti-α-amylase activity (starch/DNS); conditions: for Anti α-Amylase %: at 100 µM
T2 sequence (P04746 16-511): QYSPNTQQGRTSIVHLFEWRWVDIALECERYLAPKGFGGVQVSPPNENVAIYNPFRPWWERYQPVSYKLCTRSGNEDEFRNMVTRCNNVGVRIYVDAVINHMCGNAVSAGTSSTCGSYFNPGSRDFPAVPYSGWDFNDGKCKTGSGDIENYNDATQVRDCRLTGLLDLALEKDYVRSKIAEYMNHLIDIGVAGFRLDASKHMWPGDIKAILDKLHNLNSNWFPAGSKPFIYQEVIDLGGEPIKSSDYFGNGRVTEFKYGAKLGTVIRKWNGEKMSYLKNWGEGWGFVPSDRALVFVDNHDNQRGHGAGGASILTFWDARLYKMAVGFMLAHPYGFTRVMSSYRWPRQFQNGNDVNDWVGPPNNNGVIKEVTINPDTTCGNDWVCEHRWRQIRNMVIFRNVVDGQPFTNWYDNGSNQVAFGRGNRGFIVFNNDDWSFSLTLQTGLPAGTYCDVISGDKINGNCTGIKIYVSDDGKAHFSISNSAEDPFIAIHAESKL
Experimental: The α-amylase inhibitory activity (%) value was defined as the percentage decrease in the maltose production rate over the control. […] After 15 min, this mixture was removed from the water bath and diluted with 900 µL of distilled water. The anti-α-amylase activity was determined by measuring the absorbance at 540 nm. Blank incubations were determined as the absorbance produced by samples where the enzyme was replaced with a buffer solution. […] The IC50 values were calculated from the mean values of the percentage of α--amylase inhibition data, determined in triplicate.

MCF7 cells = assay: Cytotoxic activity, MTT assay, MCF7; assay type: cell-based, human
Experimental: Optical density was measured at 540 nm. All tests were established in triplicate.

[4] = molecular target: T1, acetylcholinesterase (AChE); assay type: biochemical; conditions: at 100 µM
[5] = molecular target: superoxide dismutase (SOD) (Homo sapiens, UniProt P00441); assay: biochemical
superoxide dismutase (SOD), sequence (P00441 whole entry): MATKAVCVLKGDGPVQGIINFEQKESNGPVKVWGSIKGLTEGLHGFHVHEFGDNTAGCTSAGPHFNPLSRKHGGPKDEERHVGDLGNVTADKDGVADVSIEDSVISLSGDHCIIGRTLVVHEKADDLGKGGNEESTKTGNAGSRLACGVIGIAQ
Experimental: Pyrogallol auto-oxidation due to oxygen in the air can be inhibited by an enzyme that is naturally present in the body: superoxide dismutase (SOD). Furthermore, variations in the pyrogallol auto-oxidation rate in the presence of SOD were evaluated. Tests were carried out in triplicate. The objective was to find an inhibitor of the auto-oxidation of pyrogallol in the presence of a SOD enzyme solution. Samples were tested at a concentration of 50 µg/mL, followed by incubation for 4 min at 25 °C. […] The self-oxidation of pyrogallol was evaluated in the absence of the enzyme. For this, 30 µL of pyrogallol was added to 120 µL of tris buffer (in place of the SOD) (pH 8.5), then followed by the same steps of incubating a positive control (without the molecule); this was performed in the presence of 5% of DMSO to evaluate the percentage of SOD inhibition activity on the auto-oxidation of pyrogallol.

[6] = Homo sapiens, SK-OV-3, 72 h, read-out: IC50 SKOV-3, MTT, 72 h
[7] = Homo sapiens, HCT-116, 72 h, read-out: IC50 HCT116, MTT, 72 h
[8] = read-out: IC50 HCT116, MTT, 72 h

| Structure (SMILES) | IC50 [1] [µM] | IC50 [2] [µM] | IC50 (SKOV-3 cells; [6]) [µM] | IC50 [3] [µM] | DPPH Assay % [3] | IC50 (HCT116 cells; [7]) [µM] | IC50 (HCT116 cells; [8]) [µM] | IC50 (α-amylase) [µM] | Anti α-Amylase % (α-amylase) [%] | IC50 (MCF7 cells; Homo sapiens, MCF7, 72 h) [µM] | Anti ACHE % [4] [%] | IC50 ([5]; Anti SOD IC50) [µM] | IC50 ([5]; read-out: Anti SOD IC50) [µM] | IC50 ([2]; read-out: Anti ACHE IC50) [µM] | IC50 (SKOV-3 cells; read-out: IC50 SKOV-3, MTT, 72 h) [µM] | ABTS Assay % [1] [%] | IC50 (MCF7 cells; 72 h) [µM] |
| --- | --- | --- | --- | --- | --- | --- | --- | --- | --- | --- | --- | --- | --- | --- | --- | --- | --- |
| O=c1cc(-c2ccccc2)oc2cc(O)cc(O)c12 [Molecule M1, 5,7-dihydroxyflavone] | > 50 | > 100 | > 50 | > 100 | not active | > 100 | > 50 | 36.6 ± 0.2 | 59.7 ± 2.0 | 35.9 ± 0.8 | 45.8 ± 1.3 | > 100 | – | – | – | – | – |
| COc1ccc(-c2oc3c(CC=C(C)C)c(O[C@@H]4O[C@H](CO)[C@@H](O)[C@H](O)[C@H]4O)cc(O)c3c(=O)c2O[C@@H]2O[C@@H](C)[C@H](O)[C@@H](O)[C@H]2O)cc1 [Molecule M2, Icariin] | 20.1 ± 0.1 | > 100 | > 50 | > 100 | – | > 50 | – | 14.1 ± 2.1 | 58.1 ± 2.2 | > 100 | 19.3 ± 0.3 | – | > 50 | – | – | – | – |
| O=c1cc(-c2ccccc2)oc2ccc(O)cc12 [Molecule M3, 6-hydroxyflavone] | 24 ± 0.1 | – | > 100 | > 100 | – | > 100 | > 50 | 10.9 ± 0.1 | 90.3 ± 3.2 | > 50 | – | – | > 50 | > 100 | > 50 | – | – |
| O=c1cc(-c2ccccc2)oc2cccc(O)c12 [Molecule M4, 5-hydroxyflavone] | > 100 | > 100 | > 50 | > 100 | – | > 100 | > 50 | 37.9 ± 0.8 | 58.4 ± 1.4 | > 50 | – | > 100 | – | – | – | 16.0 ± 1.5 | > 100 |
| O=c1cc(-c2ccccc2)oc2cc(O)ccc12 [Molecule M5, 7-hydroxyflavone] | > 100 | > 100 | > 50 | > 100 | – | > 100 | > 50 | 1.2 ± 0.1 | 90.3 ± 3.2 | > 50 | – | – | 36.5 ± 1.2 | – | – | 5.9 ± 0.4 | – |
| O=c1cc(-c2ccccc2)oc2cc(O)c(O)c(O)c12 [Molecule M7, 5,6,7-trihydroxyflavone] | 6.3 ± 0.1 | 10.2 ± 3 | 15.6 ± 0.1 | 5.2 ± 0.2 | 96.4 ± 0.1% | 38.5 ± 1.3 | – | 3.4 ± 0.1 | 96.9 ± 1.7 | 33.1 ± 1.4 | 62.0 ± 1.9 | 36.5 ± 1.2 | 31.5 ± 0.5 | – | – | – | – |
| O=c1cc(-c2cc(O)cc(O)c2)oc2ccccc12 [Molecule M8, 3′,5′-dihydroxyflavone] | 7.3 ± 0.1 | – | > 50 | > 100 | 20.3 ± 4.1% | 33.1 ± 0.1 | – | 14.9 ± 0.3 | 104.8 ± 3.5 | 40.4 ± 0.7 | 49.3 ± 2.2 | – | > 50 | > 100 | – | – | – |
| O=c1cc(-c2cccc(O)c2)oc2ccc3ccccc3c12 [Molecule M9, 3′-hydroxy-b-naphthoflavone] | > 100 | – | > 50 | > 100 | – | > 50 | – | 2 ± 0.2 | 86.6 ± 2.3 | > 50 | 47.9 ± 4.0 | – | > 100 | > 100 | – | – | – |
| O=c1cc(-c2cccc(O)c2)oc2cc(O)ccc12 [Molecule M13, 7,3′-dihydroxyflavone] | 24.5 ± 0.1 | – | 42.1 ± 0.7 | > 100 | – | 39.3 ± 0.8 | – | 1.4 ± 0.1 | 91.7 ± 4.9 | 38.5 ± 1.2 | 63.9 ± 3.3 | – | > 50 | > 50 | – | – | – |
| COc1cc(-c2cc(=O)c3ccc4c(O)cccc4c3o2)cc(OC)c1OC [Molecule M18, 7-hydroxy-3′,4′,5′-trimethoxy-α-naphthoflavone] | > 50 | – | 37.3 ± 1 | > 100 | 40.8 ± 0.6% | 45 ± 0.9 | – | > 100 | – | > 50 | 43.3 ± 1.8 | – | > 100 | > 100 | – | – | – |
